Experimental data reported in ChEMBL document CHEMBL1201862, “PubChem BioAssay data set” (2004).
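Where inhibition never reached the appropriate level, the endpoint shown equals the highest concentration tested. Otherwise, values were interpolated linearly from a five-concentration, 48-hour dose response in 96-well plates. The concentration for 50% growth inhibition is given as GI50.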 Activity calls are given as the source filed them. Cut-off read from the data, not from the text of the source: active = GI50 up to about 1.1 µM and inactive = higher.

Columns and labels:
Assay in all cases: growth of human tumour cells (NCI), 48 h
U-251 = system: U-251
SW-620 = system: SW-620
OVCAR-8 = system: OVCAR-8
CAKI-1 = system: CAKI-1
OVCAR-5 = system: OVCAR-5
SF-268 = system: SF-268
LOX IMVI = system: LOX IMVI
Malme-3M = system: Malme-3M
IGROV-1 = system: IGROV-1
SNB-75 = system: SNB-75
RXF 393 = system: RXF 393
A498 = system: A498
NCI-H460 = system: NCI-H460
HT-29 = system: HT-29
MOLT-4 = system: MOLT-4
KM12 = system: KM12
M14 = system: M14
UO-31 = system: UO-31
SR = system: SR

CCOc1cc(/C=C/C=C/c2ccc(N(C)C)cc2)[s+]c2ccccc12
GI50 (U-251): 5.36 µM (inactive) | GI50 (SW-620): 30.7 µM (inactive) | GI50 (OVCAR-8): 25.6 µM (inactive) | GI50 (CAKI-1): 23.7 µM (inactive) | GI50 (OVCAR-5): > 100 µM (inactive) | GI50 (SF-268): 18.4 µM (inactive) | GI50 (LOX IMVI): 15.4 µM (inactive) | GI50 (Malme-3M): 28.9 µM (inactive) | GI50 (IGROV-1): 21.6 µM (inactive) | GI50 (SNB-75): 28.4 µM (inactive) | GI50 (RXF 393): 24.2 µM (inactive) | GI50 (A498): 28.2 µM (inactive) | GI50 (NCI-H460): 18.6 µM (inactive) | GI50 (HT-29): 35.8 µM (inactive) | GI50 (MOLT-4): 6.85 µM (inactive) | GI50 (KM12): 17.1 µM (inactive) | GI50 (M14): 38.7 µM (inactive)

COc1ccc(NN=C2C(=O)CCC2=O)cc1
GI50 (U-251): > 100 µM (inactive) | GI50 (UO-31): 98.9 µM (inactive) | GI50 (SW-620): > 100 µM (inactive) | GI50 (OVCAR-8): > 100 µM (inactive) | GI50 (CAKI-1): > 100 µM (inactive) | GI50 (OVCAR-5): > 100 µM (inactive) | GI50 (SF-268): > 100 µM (inactive) | GI50 (LOX IMVI): > 100 µM (inactive) | GI50 (Malme-3M): > 100 µM (inactive) | GI50 (IGROV-1): > 100 µM (inactive) | GI50 (SNB-75): > 100 µM (inactive) | GI50 (RXF 393): > 100 µM (inactive) | GI50 (A498): 55 µM (inactive) | GI50 (NCI-H460): > 100 µM (inactive) | GI50 (HT-29): > 100 µM (inactive) | GI50 (MOLT-4): > 100 µM (inactive) | GI50 (KM12): > 100 µM (inactive) | GI50 (M14): 57.3 µM (inactive)

CN1CCCC2(CCCc3ccccc32)C1 (configuration not stated)
GI50 (U-251): > 100 µM (inactive) | GI50 (UO-31): 80.2 µM (inactive) | GI50 (SW-620): > 100 µM (inactive) | GI50 (OVCAR-8): > 100 µM (inactive) | GI50 (CAKI-1): > 100 µM (inactive) | GI50 (OVCAR-5): > 100 µM (inactive) | GI50 (SF-268): > 100 µM (inactive) | GI50 (LOX IMVI): > 100 µM (inactive) | GI50 (Malme-3M): > 100 µM (inactive) | GI50 (IGROV-1): > 100 µM (inactive) | GI50 (SNB-75): > 100 µM (inactive) | GI50 (SR): > 100 µM (inactive) | GI50 (A498): > 100 µM (inactive) | GI50 (NCI-H460): > 100 µM (inactive) | GI50 (HT-29): > 100 µM (inactive) | GI50 (MOLT-4): > 100 µM (inactive) | GI50 (KM12): > 100 µM (inactive) | GI50 (M14): > 100 µM (inactive)

Cc1ccc(C(=O)Nc2ncn(C3CC(O)C(CO)O3)c(=O)n2)cc1 (configuration not stated)
GI50 (U-251): > 100 µM (inactive) | GI50 (UO-31): > 100 µM (inactive) | GI50 (SW-620): > 100 µM (inactive) | GI50 (OVCAR-8): > 100 µM (inactive) | GI50 (CAKI-1): > 100 µM (inactive) | GI50 (OVCAR-5): > 100 µM (inactive) | GI50 (SF-268): > 100 µM (inactive) | GI50 (LOX IMVI): > 100 µM (inactive) | GI50 (Malme-3M): > 100 µM (inactive) | GI50 (IGROV-1): > 100 µM (inactive) | GI50 (SNB-75): > 52.6 µM (inactive) | GI50 (RXF 393): > 100 µM (inactive) | GI50 (A498): > 100 µM (inactive) | GI50 (NCI-H460): > 100 µM (inactive) | GI50 (HT-29): > 100 µM (inactive) | GI50 (MOLT-4): > 29.6 µM (inactive) | GI50 (KM12): > 100 µM (inactive)

COC(OC)c1cc2c(cc1C=O)OCO2
GI50 (U-251): > 100 µM (inactive) | GI50 (UO-31): 45.3 µM (inactive) | GI50 (SW-620): > 100 µM (inactive) | GI50 (OVCAR-8): > 100 µM (inactive) | GI50 (CAKI-1): 34.1 µM (inactive) | GI50 (OVCAR-5): > 100 µM (inactive) | GI50 (SF-268): > 100 µM (inactive) | GI50 (Malme-3M): 0.276 µM (active) | GI50 (IGROV-1): > 100 µM (inactive) | GI50 (SNB-75): 21.2 µM (inactive) | GI50 (RXF 393): > 100 µM (inactive) | GI50 (SR): > 100 µM (inactive) | GI50 (NCI-H460): > 100 µM (inactive) | GI50 (HT-29): > 100 µM (inactive) | GI50 (MOLT-4): > 100 µM (inactive) | GI50 (KM12): > 100 µM (inactive) | GI50 (M14): 48.9 µM (inactive)

CCOC(=O)C1=C(Nc2ccc(Cl)c(Cl)c2)OC/C1=N\NC(=O)Cc1ccccc1
GI50 (U-251): > 100 µM (inactive) | GI50 (UO-31): 56.2 µM (inactive) | GI50 (SW-620): > 100 µM (inactive) | GI50 (OVCAR-8): > 100 µM (inactive) | GI50 (CAKI-1): > 100 µM (inactive) | GI50 (OVCAR-5): > 100 µM (inactive) | GI50 (SF-268): > 100 µM (inactive) | GI50 (LOX IMVI): > 100 µM (inactive) | GI50 (Malme-3M): > 100 µM (inactive) | GI50 (IGROV-1): > 100 µM (inactive) | GI50 (SNB-75): > 100 µM (inactive) | GI50 (RXF 393): > 100 µM (inactive) | GI50 (A498): > 100 µM (inactive) | GI50 (NCI-H460): > 100 µM (inactive) | GI50 (MOLT-4): 61.1 µM (inactive) | GI50 (KM12): > 100 µM (inactive) | GI50 (M14): > 100 µM (inactive)

CCCCCOc1ccc(/C=N\c2ccc(-c3ccc(/N=C\c4ccc(OCCCCC)cc4)c(OC)c3)cc2OC)cc1
GI50 (U-251): > 100 µM (inactive) | GI50 (UO-31): > 80.2 µM (inactive) | GI50 (SW-620): > 100 µM (inactive) | GI50 (OVCAR-8): > 100 µM (inactive) | GI50 (OVCAR-5): > 100 µM (inactive) | GI50 (SF-268): > 100 µM (inactive) | GI50 (LOX IMVI): > 100 µM (inactive) | GI50 (Malme-3M): > 100 µM (inactive) | GI50 (IGROV-1): > 100 µM (inactive) | GI50 (SNB-75): 46.9 µM (inactive) | GI50 (RXF 393): > 100 µM (inactive) | GI50 (A498): > 100 µM (inactive) | GI50 (NCI-H460): > 100 µM (inactive) | GI50 (HT-29): > 100 µM (inactive) | GI50 (MOLT-4): > 100 µM (inactive) | GI50 (KM12): > 100 µM (inactive)

CC(=O)Nc1ccc(/C=C/c2ccc(NC(=O)Nc3ccc(/C=C/c4ccc(NC(C)=O)cc4S(=O)(=O)O)c(S(=O)(=O)O)c3)cc2S(=O)(=O)O)c(S(=O)(=O)O)c1
GI50 (U-251): > 100 µM (inactive) | GI50 (UO-31): > 100 µM (inactive) | GI50 (SW-620): > 100 µM (inactive) | GI50 (OVCAR-8): > 100 µM (inactive) | GI50 (OVCAR-5): > 100 µM (inactive) | GI50 (SF-268): > 100 µM (inactive) | GI50 (LOX IMVI): > 94.2 µM (inactive) | GI50 (Malme-3M): > 100 µM (inactive) | GI50 (IGROV-1): > 100 µM (inactive) | GI50 (SNB-75): 53.8 µM (inactive) | GI50 (RXF 393): > 100 µM (inactive) | GI50 (A498): > 100 µM (inactive) | GI50 (NCI-H460): > 100 µM (inactive) | GI50 (HT-29): > 100 µM (inactive) | GI50 (MOLT-4): > 100 µM (inactive) | GI50 (KM12): > 100 µM (inactive)

CCC(C)n1c(C)nc2c1C(=O)c1ccccc1C2=O (configuration not stated)
GI50 (U-251): 44.8 µM (inactive) | GI50 (UO-31): 37.8 µM (inactive) | GI50 (SW-620): 64.7 µM (inactive) | GI50 (OVCAR-8): 47.1 µM (inactive) | GI50 (SF-268): 30.8 µM (inactive) | GI50 (LOX IMVI): 23.1 µM (inactive) | GI50 (Malme-3M): 32.2 µM (inactive) | GI50 (IGROV-1): 45.1 µM (inactive) | GI50 (SNB-75): 42.8 µM (inactive) | GI50 (RXF 393): 26.7 µM (inactive) | GI50 (SR): 47.5 µM (inactive) | GI50 (NCI-H460): 19.3 µM (inactive) | GI50 (HT-29): 40.4 µM (inactive) | GI50 (MOLT-4): 28.1 µM (inactive) | GI50 (KM12): > 100 µM (inactive) | GI50 (M14): > 100 µM (inactive)

COc1cccc(C2SCc3nc4ccccc4n32)c1 (configuration not stated)
GI50 (U-251): 76.6 µM (inactive) | GI50 (UO-31): 22.1 µM (inactive) | GI50 (SW-620): 46.6 µM (inactive) | GI50 (OVCAR-8): 57.9 µM (inactive) | GI50 (CAKI-1): 37.9 µM (inactive) | GI50 (OVCAR-5): 58.9 µM (inactive) | GI50 (SF-268): 73.1 µM (inactive) | GI50 (LOX IMVI): 54.6 µM (inactive) | GI50 (Malme-3M): 54.6 µM (inactive) | GI50 (IGROV-1): 45.5 µM (inactive) | GI50 (SNB-75): 53 µM (inactive) | GI50 (RXF 393): 53.6 µM (inactive) | GI50 (A498): 38 µM (inactive) | GI50 (NCI-H460): > 100 µM (inactive) | GI50 (HT-29): 41.9 µM (inactive) | GI50 (MOLT-4): 66.1 µM (inactive) | GI50 (KM12): 56.4 µM (inactive) | GI50 (M14): 77.1 µM (inactive)

CC[C@@]1(O)C[C@H](OC2CC(N(C)C)C(OC3CC(O)C(OC4CC(O)C(O)C(C)O4)C(C)O3)C(C)O2)c2c(cc3c(c2O)C(=O)c2c(O)ccc(O)c2C3=O)[C@H]1C(=O)OC (some centres not stated)
GI50 (U-251): 0.084 µM (active) | GI50 (UO-31): 0.112 µM (active) | GI50 (SW-620): 0.00875 µM (active) | GI50 (OVCAR-8): 0.00474 µM (active) | GI50 (CAKI-1): 0.0082 µM (active) | GI50 (OVCAR-5): 0.254 µM (active) | GI50 (SF-268): 0.0263 µM (active) | GI50 (LOX IMVI): 0.163 µM (active) | GI50 (Malme-3M): 0.0478 µM (active) | GI50 (IGROV-1): < 0.023 µM (active) | GI50 (SNB-75): 0.0548 µM (active) | GI50 (RXF 393): 0.0356 µM (active) | GI50 (A498): 0.0146 µM (active) | GI50 (NCI-H460): 0.00577 µM (active) | GI50 (HT-29): 0.022 µM (active) | GI50 (MOLT-4): 0.0141 µM (active) | GI50 (KM12): < 0.0174 µM (active)
